Measured values: ChEMBL document CHEMBL4840313, “Bioisosteric replacements of the indole moiety for the development of a potent and selective PI3Kδ inhibitor: Design, synthesis and biological evaluation” (Eur J Med Chem, 2021)

Key:
[1] = molecular target: T1, Phosphatidylinositol 4,5-bisphosphate 3-kinase catalytic subunit delta isoform (Homo sapiens, UniProt O00329); test: Inhibition of PI3Kdelta (unknown origin) using PIP2 as substrate in presence of ATP measured after 60 mins by ADP-Glo assay
T1 sequence (O00329 whole entry): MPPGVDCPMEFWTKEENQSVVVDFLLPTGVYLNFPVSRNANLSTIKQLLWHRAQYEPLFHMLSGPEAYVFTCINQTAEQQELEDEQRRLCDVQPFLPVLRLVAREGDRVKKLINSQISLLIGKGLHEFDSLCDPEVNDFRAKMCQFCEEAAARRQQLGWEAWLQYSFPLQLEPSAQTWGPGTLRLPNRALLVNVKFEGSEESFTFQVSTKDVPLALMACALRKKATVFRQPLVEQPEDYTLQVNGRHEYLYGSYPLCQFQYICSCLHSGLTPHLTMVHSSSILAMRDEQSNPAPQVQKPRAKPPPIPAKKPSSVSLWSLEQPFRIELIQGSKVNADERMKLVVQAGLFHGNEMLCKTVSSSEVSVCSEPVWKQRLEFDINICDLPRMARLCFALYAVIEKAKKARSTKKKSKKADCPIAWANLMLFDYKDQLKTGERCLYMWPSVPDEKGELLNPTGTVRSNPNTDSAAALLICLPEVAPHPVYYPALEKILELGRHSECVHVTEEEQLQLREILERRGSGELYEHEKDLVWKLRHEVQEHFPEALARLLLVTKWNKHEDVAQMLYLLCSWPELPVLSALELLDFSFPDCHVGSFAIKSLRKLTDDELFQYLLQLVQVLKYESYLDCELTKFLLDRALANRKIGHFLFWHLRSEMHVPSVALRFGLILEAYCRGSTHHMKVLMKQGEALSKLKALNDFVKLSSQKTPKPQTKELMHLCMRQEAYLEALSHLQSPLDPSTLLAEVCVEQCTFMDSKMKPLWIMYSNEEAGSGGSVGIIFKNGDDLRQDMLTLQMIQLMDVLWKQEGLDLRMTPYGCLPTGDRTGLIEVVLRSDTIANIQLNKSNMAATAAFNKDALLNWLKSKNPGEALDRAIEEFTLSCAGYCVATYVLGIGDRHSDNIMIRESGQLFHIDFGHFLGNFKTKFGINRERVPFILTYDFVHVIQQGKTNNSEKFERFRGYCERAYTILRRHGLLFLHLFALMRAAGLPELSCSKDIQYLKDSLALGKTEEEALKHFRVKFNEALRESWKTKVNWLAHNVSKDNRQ

[2] = molecular target: Phosphatidylinositol 4,5-bisphosphate 3-kinase catalytic subunit alpha isoform (Homo sapiens, UniProt P42336); test: Inhibition of PI3Kalpha (unknown origin) using PIP2 as substrate in presence of ATP measured after 60 mins by ADP-Glo assay
Chain of Phosphatidylinositol 4,5-bisphosphate 3-kinase catalytic subunit alpha isoform (P42336 whole entry, canonical isoform): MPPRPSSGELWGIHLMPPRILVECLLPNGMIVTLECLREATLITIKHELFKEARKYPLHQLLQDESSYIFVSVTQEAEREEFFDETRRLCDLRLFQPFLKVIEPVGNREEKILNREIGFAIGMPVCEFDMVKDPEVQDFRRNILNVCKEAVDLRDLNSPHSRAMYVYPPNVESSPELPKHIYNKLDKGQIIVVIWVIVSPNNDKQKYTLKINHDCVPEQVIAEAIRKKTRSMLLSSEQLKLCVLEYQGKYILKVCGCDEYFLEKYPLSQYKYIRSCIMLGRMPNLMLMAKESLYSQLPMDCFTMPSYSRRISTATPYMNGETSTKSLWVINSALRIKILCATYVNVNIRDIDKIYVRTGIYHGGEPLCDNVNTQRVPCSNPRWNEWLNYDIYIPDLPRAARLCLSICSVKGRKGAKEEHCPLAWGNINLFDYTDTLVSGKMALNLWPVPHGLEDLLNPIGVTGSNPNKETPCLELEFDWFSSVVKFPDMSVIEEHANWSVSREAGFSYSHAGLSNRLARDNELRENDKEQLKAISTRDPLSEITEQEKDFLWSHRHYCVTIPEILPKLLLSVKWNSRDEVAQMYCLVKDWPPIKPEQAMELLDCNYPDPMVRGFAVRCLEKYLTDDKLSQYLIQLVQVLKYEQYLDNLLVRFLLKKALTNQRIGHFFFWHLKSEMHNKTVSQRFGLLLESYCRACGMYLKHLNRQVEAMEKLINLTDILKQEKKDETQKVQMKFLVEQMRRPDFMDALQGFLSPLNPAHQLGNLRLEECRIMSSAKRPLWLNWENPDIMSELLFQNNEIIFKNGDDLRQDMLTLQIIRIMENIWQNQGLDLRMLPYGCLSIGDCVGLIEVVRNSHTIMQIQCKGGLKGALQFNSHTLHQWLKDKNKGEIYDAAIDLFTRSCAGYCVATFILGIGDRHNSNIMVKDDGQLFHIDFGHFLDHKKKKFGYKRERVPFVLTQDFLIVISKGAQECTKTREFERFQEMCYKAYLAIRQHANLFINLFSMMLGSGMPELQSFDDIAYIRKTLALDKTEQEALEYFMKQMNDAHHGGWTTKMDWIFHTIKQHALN

[3] = molecular target: Phosphatidylinositol 4,5-bisphosphate 3-kinase catalytic subunit gamma isoform (Homo sapiens, UniProt P48736); test: Inhibition of PI3Kgamma (unknown origin) using PIP2 as substrate in presence of ATP measured after 60 mins by ADP-Glo assay
Chain of Phosphatidylinositol 4,5-bisphosphate 3-kinase catalytic subunit gamma isoform (P48736 whole entry, canonical isoform): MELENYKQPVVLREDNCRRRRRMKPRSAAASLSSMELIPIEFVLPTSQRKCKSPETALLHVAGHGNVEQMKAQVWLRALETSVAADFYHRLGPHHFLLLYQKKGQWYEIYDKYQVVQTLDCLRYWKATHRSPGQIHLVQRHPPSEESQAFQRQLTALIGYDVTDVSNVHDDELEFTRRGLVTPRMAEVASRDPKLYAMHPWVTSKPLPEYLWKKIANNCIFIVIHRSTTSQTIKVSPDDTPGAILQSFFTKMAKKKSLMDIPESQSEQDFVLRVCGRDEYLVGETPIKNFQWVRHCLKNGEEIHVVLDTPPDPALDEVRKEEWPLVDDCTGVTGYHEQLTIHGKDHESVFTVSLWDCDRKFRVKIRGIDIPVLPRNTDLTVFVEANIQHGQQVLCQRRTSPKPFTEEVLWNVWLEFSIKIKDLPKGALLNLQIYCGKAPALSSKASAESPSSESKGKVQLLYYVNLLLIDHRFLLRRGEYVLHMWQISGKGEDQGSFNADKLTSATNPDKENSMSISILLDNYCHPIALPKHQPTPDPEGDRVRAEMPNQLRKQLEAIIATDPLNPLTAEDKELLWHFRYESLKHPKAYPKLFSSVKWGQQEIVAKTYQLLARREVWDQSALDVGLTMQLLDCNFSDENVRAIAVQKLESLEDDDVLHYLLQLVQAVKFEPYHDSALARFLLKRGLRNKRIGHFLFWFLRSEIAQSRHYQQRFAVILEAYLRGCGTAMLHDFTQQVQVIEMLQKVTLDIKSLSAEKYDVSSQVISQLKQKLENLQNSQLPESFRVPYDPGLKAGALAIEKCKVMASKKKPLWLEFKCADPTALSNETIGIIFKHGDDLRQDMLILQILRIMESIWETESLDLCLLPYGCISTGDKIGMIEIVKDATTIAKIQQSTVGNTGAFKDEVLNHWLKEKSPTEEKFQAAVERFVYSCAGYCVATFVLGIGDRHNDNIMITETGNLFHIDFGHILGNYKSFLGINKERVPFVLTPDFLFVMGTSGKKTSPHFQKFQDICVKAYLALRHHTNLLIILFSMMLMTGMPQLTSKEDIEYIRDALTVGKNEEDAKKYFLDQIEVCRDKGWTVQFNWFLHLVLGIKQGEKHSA

[4] = molecular target: Phosphatidylinositol 4,5-bisphosphate 3-kinase catalytic subunit beta isoform (Homo sapiens, UniProt P42338); test: Inhibition of PI3Kbeta (unknown origin) using PIP2 as substrate in presence of ATP measured after 60 mins by ADP-Glo assay
Chain of Phosphatidylinositol 4,5-bisphosphate 3-kinase catalytic subunit beta isoform (P42338 whole entry, canonical isoform): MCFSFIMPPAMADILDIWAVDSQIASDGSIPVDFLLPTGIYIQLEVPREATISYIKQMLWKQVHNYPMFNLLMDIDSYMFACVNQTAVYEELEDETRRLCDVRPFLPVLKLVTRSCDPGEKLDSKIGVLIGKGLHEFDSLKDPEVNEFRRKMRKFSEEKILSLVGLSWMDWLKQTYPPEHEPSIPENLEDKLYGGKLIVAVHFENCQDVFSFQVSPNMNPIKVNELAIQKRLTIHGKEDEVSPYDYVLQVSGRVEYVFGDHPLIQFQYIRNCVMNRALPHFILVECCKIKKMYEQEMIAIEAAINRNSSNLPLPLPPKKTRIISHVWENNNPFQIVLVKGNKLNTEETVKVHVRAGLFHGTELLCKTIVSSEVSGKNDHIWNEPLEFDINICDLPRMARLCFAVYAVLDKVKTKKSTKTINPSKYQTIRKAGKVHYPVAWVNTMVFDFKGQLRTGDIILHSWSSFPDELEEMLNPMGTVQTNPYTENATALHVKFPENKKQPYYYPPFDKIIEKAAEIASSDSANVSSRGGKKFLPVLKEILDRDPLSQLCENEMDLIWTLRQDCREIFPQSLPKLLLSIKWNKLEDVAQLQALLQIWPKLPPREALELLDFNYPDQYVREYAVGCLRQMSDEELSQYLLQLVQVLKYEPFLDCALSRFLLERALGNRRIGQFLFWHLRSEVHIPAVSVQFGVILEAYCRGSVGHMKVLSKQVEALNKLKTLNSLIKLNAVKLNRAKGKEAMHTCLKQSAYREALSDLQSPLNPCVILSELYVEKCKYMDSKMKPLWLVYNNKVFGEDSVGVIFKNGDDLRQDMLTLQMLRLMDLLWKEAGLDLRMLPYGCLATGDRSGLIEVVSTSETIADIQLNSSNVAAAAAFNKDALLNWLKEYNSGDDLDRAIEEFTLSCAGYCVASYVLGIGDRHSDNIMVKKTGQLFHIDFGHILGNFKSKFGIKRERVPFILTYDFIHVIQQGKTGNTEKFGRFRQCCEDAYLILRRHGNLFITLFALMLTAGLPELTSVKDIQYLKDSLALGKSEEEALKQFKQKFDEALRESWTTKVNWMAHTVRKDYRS

IC50 [1] | SMILES | further results
209 nM | O=S(=O)(Nc1cc(-c2cnc3occc3c2)cnc1Cl)c1ccccc1 | 
15 nM | O=S(=O)(Nc1cc(-c2ccc3[nH]nnc3c2)cnc1Cl)c1ccccc1 | 
3060 nM | O=S(=O)(Nc1cc(-c2ccc3[nH]ccc3n2)cnc1Cl)c1ccccc1 | 
334 nM | O=S(=O)(Nc1cc(-c2ccc3[nH]ccc3c2)cnc1Cl)c1ccccc1 | 
527 nM | O=S(=O)(Nc1cc(-c2cc3cn[nH]c3cn2)cnc1Cl)c1ccccc1 | 
492 nM | O=S(=O)(Nc1cc(-c2ccc3c(c2)CCN3)cnc1Cl)c1ccccc1 | 
123 nM | O=S(=O)(Nc1cc(-c2cnc3c(c2)CCN3)cnc1Cl)c1ccccc1 | 
16 nM | O=S(=O)(Nc1cc(-c2cnc3[nH]cnc3c2)cnc1Cl)c1ccccc1 | IC50 [2]: 28 nM; IC50 [3]: 21 nM; IC50 [4]: 26 nM
17 nM | O=S(=O)(Nc1cc(-c2ccc3occc3c2)cnc1Cl)c1ccccc1 | 
204 nM | O=S(=O)(Nc1cc(-c2cnc3scnc3c2)cnc1Cl)c1ccccc1 | 
28 nM | O=S(=O)(Nc1cc(-c2ccc3[nH]cnc3c2)cnc1Cl)c1ccccc1 | 
1310 nM | O=S(=O)(Nc1cc(-c2cc3cc[nH]c3cn2)cnc1Cl)c1ccccc1 | 
49 nM | O=S(=O)(Nc1cc(-c2cnc3[nH]ccc3n2)cnc1Cl)c1ccccc1 | IC50 [2]: 59 nM; IC50 [3]: 57 nM; IC50 [4]: 80 nM
36 nM | O=S(=O)(Nc1cc(-c2ccc3[nH]ncc3c2)cnc1Cl)c1ccccc1 | 
604 nM | O=S(=O)(Nc1cc(-c2ccc3scnc3c2)cnc1Cl)c1ccccc1 | 
37 nM | O=S(=O)(Nc1cc(-c2ccc3ocnc3c2)cnc1Cl)c1ccccc1 | 
859 nM | O=S(=O)(Nc1cc(-c2ccc3sccc3c2)cnc1Cl)c1ccccc1 | 
294 nM | O=S(=O)(Nc1cc(-c2ccc3[nH]ncc3n2)cnc1Cl)c1ccccc1 | 
